In US4258180A, “C6-Modified cyclodextrin sulfate salts as complement inhibitors” (American Cyanamid Company, priority 1979, dated 1981):
Where a name gives a salt, the structure may show the parent alone.

Experiments:
Type in all cases: biochemical
[1] = system: shunt pathway; assay: Test Code 036 (C-Shunt inhibitor), lysis of fragile human erythrocytes in autologous serum, cobra venom factor; conditions: serial dilution assay, twofold dilutions; higher well number indicates higher activity; N = Negative
Text: (§1) An active inhibitor protects C2 from C1 and C4; (ii) Test Code 035 (C3-C9 inhibitor)--This test determines the ability of the late components of human complement (C3-C9) to lyse EAC 142 in the presence of appropriate dilutions of the test compound. An active inhibitor protects EAC 142 from lysis by human C3-C9; (iii) Test Code 036 (C-Shunt inhibitor)--In this test human erythrocytes rendered fragile are lysed in autologous serum via the shunt pathway activated by cobra venom factor in the presence of appropriate dilutions of the test compound. Inhibition of the shunt pathway results in failure of lysis; (iv) Forssman Vasculitis Test--Here, the well known complement dependent lesion, Forssman Vasculitis, is produced in guinea pigs by intradermal injection of rabbit anti-Forssman antiserum. The lesion is measured in terms of diameter, edema and hemorrhage and the extent to which a combined index of these is inhibited by prior intraperitoneal injection of the test compound at 200 mg/kg is then reported, unless otherwise stated; (v) Forssman Shock Test--Lethal shock is produced in guinea pigs by an i.v. injection of anti-Forssman antiserum and the harmonic mean death time of treated guinea pigs is compared with that of simultaneous controls; (vi) Complement Level Reduction Test--In this test, the above dosed guinea pigs, or others, are bled for serum and the complement level is determined in undiluted serum by the capillary tube method of U.S. Pat. No. 3,876,376 and compared to undosed control guinea pigs; and (vii) Cap 50 Test--Here, appropriate amounts of the test compound are added to a pool of guinea pig serum in vitro, after which the undiluted serum capillary tube assay referred to above is run. The concentration of compound inhibiting 50% is reported.

[2] = system: late components of human complement (C3-C9); assay: Test Code 035 (C3-C9 inhibitor), lysis of EAC 142; conditions: serial dilution assay, twofold dilutions; higher well number indicates higher activity; N = Negative
Text: as §1

[3] = target: activated human C1 (Homo sapiens, UniProt P09871); assay: Test Code 026 (C1 inhibitor); conditions: serial dilution assay, twofold dilutions; higher well number indicates higher activity
Text: as §1

Row | Structure (SMILES) | 036 Activity in wells [1] | 035 Activity in wells [2] | 026 Activity in wells [3]
1 | C[C@H]1O[C@@H]2O[C@H]3[C@H](OS(=O)(=O)O)[C@@H](OS(=O)(=O)O)[C@@H](O[C@H]4[C@H](OS(=O)(=O)O)[C@@H](OS(=O)(=O)O)[C@@H](O[C@H]5[C@H](OS(=O)(=O)O)[C@@H](OS(=O)(=O)O)[C@@H](O[C@H]6[C@H](OS(=O)(=O)O)[C@@H](OS(=O)(=O)O)[C@@H](O[C@H]7[C@H](OS(=O)(=O)O)[C@@H](OS(=O)(=O)O)[C@@H](O[C@H]1[C@H](OS(=O)(=O)O)[C@H]2OS(=O)(=O)O)O[C@@H]7C)O[C@@H]6C)O[C@@H]5C)O[C@@H]4C)O[C@@H]3C [α-Cyclo[6-deoxy]dextrin poly(H-sulfate)poly-trimethylamine s] [6,6',6",6'",6"",6'""-Hexadeoxy-α-cyclodextrin, dodecakis(H-sulfate), dodecasalt with trimethylamine] | 3 wells | N | 7 wells
2 | [N-]=[N+]=NC[C@H]1O[C@@H]2O[C@H]3[C@H](OS(=O)(=O)O)[C@@H](OS(=O)(=O)O)[C@@H](O[C@H]4[C@H](OS(=O)(=O)O)[C@@H](OS(=O)(=O)O)[C@@H](O[C@H]5[C@H](OS(=O)(=O)O)[C@@H](OS(=O)(=O)O)[C@@H](O[C@H]6[C@H](OS(=O)(=O)O)[C@@H](OS(=O)(=O)O)[C@@H](O[C@H]7[C@H](OS(=O)(=O)O)[C@@H](OS(=O)(=O)O)[C@@H](O[C@H]8[C@H](OS(=O)(=O)O)[C@@H](OS(=O)(=O)O)[C@@H](O[C@H]1[C@H](OS(=O)(=O)O)[C@H]2OS(=O)(=O)O)O[C@@H]8CN=[N+]=[N-])O[C@@H]7CN=[N+]=[N-])O[C@@H]6CN=[N+]=[N-])O[C@@H]5CN=[N+]=[N-])O[C@@H]4CN=[N+]=[N-])O[C@@H]3CN=[N+]=[N-] [β-Cyclo[6-azido-6-deoxy]dextrin poly(H-sulfate)poly-sodium s] [6,6',6",6'",6"",6'"",6"""-Heptaazido-6,6',6",6'",6"",6'"",6"""-heptadeoxy-β-cyclodextrin, tetradecakis(H-sulfate), tetradecasoium salt] | 4 wells | 2 wells | 6 wells
3 | [N-]=[N+]=NC[C@H]1O[C@@H]2O[C@H]3[C@H](OS(=O)(=O)O)[C@@H](OS(=O)(=O)O)[C@@H](O[C@H]4[C@H](OS(=O)(=O)O)[C@@H](OS(=O)(=O)O)[C@@H](O[C@H]5[C@H](OS(=O)(=O)O)[C@@H](OS(=O)(=O)O)[C@@H](O[C@H]6[C@H](OS(=O)(=O)O)[C@@H](OS(=O)(=O)O)[C@@H](O[C@H]7[C@H](OS(=O)(=O)O)[C@@H](OS(=O)(=O)O)[C@@H](O[C@H]8[C@H](OS(=O)(=O)O)[C@@H](OS(=O)(=O)O)[C@@H](O[C@H]1[C@H](OS(=O)(=O)O)[C@H]2OS(=O)(=O)O)O[C@@H]8CN=[N+]=[N-])O[C@@H]7CN=[N+]=[N-])O[C@@H]6CN=[N+]=[N-])O[C@@H]5CN=[N+]=[N-])O[C@@H]4CN=[N+]=[N-])O[C@@H]3CN=[N+]=[N-] [β-Cyclo[6-azido-6-deoxy]dextrin poly(H-sulfate)poly-trimethy] [6,6',6",6'",6"",6'"",6"""-Heptaazido-6,6',6",6'",6"",6'"",6"""-heptadeoxy-β-cyclodextrin, tetradecakis(H-sulfate), tetradecasalt with trimethylamine] | N | N | 2 wells
4 | O=S(=O)(O)O[C@@H]1[C@@H](OS(=O)(=O)O)[C@H]2O[C@H]3[C@H](OS(=O)(=O)O)[C@@H](OS(=O)(=O)O)[C@@H](O[C@H]4[C@H](OS(=O)(=O)O)[C@@H](OS(=O)(=O)O)[C@@H](O[C@H]5[C@H](OS(=O)(=O)O)[C@@H](OS(=O)(=O)O)[C@@H](O[C@H]6[C@H](OS(=O)(=O)O)[C@@H](OS(=O)(=O)O)[C@@H](O[C@H]7[C@H](OS(=O)(=O)O)[C@@H](OS(=O)(=O)O)[C@@H](O[C@H]8[C@H](OS(=O)(=O)O)[C@@H](OS(=O)(=O)O)[C@@H](O[C@@H]1[C@@H](CBr)O2)O[C@@H]8CBr)O[C@@H]7CBr)O[C@@H]6CBr)O[C@@H]5CBr)O[C@@H]4CBr)O[C@@H]3CBr [β-Cyclo[6-bromo-6-deoxy]dextrin poly(H-sulfate)poly-sodium s] [6,6',6",6'",6"",6'"",6"""-Heptabromo-6,6',6",6'",6"",6'"",6"""-heptadeoxy-β-cyclodextrin, tetradecakis(H-sulfate), tetradecasodium salt] | 5 wells | 3 wells | 7 wells
5 | O=S(=O)(O)O[C@@H]1[C@@H](OS(=O)(=O)O)[C@H]2O[C@H]3[C@H](OS(=O)(=O)O)[C@@H](OS(=O)(=O)O)[C@@H](O[C@H]4[C@H](OS(=O)(=O)O)[C@@H](OS(=O)(=O)O)[C@@H](O[C@H]5[C@H](OS(=O)(=O)O)[C@@H](OS(=O)(=O)O)[C@@H](O[C@H]6[C@H](OS(=O)(=O)O)[C@@H](OS(=O)(=O)O)[C@@H](O[C@H]7[C@H](OS(=O)(=O)O)[C@@H](OS(=O)(=O)O)[C@@H](O[C@H]8[C@H](OS(=O)(=O)O)[C@@H](OS(=O)(=O)O)[C@@H](O[C@@H]1[C@@H](CBr)O2)O[C@@H]8CBr)O[C@@H]7CBr)O[C@@H]6CBr)O[C@@H]5CBr)O[C@@H]4CBr)O[C@@H]3CBr [β-Cyclo[6-bromo-6-dexoy]dextrin poly(H-sulfate)poly-trimethy] [6,6',6",6'",6"",6'""-Heptabromo-6,6',6",6'",6"",6'"",6"""-heptadeoxy-β-cyclodextrin tetradecakis(H-sulfate), tatradecasalt with trimethylamine] | 4 wells | 3 wells | 6 wells
6 | N#CSC[C@H]1O[C@@H]2O[C@H]3[C@H](OS(=O)(=O)O)[C@@H](OS(=O)(=O)O)[C@@H](O[C@H]4[C@H](OS(=O)(=O)O)[C@@H](OS(=O)(=O)O)[C@@H](O[C@H]5[C@H](OS(=O)(=O)O)[C@@H](OS(=O)(=O)O)[C@@H](O[C@H]6[C@H](OS(=O)(=O)O)[C@@H](OS(=O)(=O)O)[C@@H](O[C@H]7[C@H](OS(=O)(=O)O)[C@@H](OS(=O)(=O)O)[C@@H](O[C@H]8[C@H](OS(=O)(=O)O)[C@@H](OS(=O)(=O)O)[C@@H](O[C@H]1[C@H](OS(=O)(=O)O)[C@H]2OS(=O)(=O)O)O[C@@H]8CSC#N)O[C@@H]7CSC#N)O[C@@H]6CSC#N)O[C@@H]5CSC#N)O[C@@H]4CSC#N)O[C@@H]3CSC#N [β-Cyclo[6-deoxy-6-thiocyanato]dextrin poly(H-sulfate)poly-so] [6,6',6",6'",6"",6'"",6"""-Heptadeoxy-6,6',6",6'",6"",6'"",6"""-heptathiocyanato-β-cyclodextrin, tetradecakis(H-sulfate), tetradecasodium salt] | 4 wells | 2 wells | 7 wells
7 | N#CSC[C@H]1O[C@@H]2O[C@H]3[C@H](OS(=O)(=O)O)[C@@H](OS(=O)(=O)O)[C@@H](O[C@H]4[C@H](OS(=O)(=O)O)[C@@H](OS(=O)(=O)O)[C@@H](O[C@H]5[C@H](OS(=O)(=O)O)[C@@H](OS(=O)(=O)O)[C@@H](O[C@H]6[C@H](OS(=O)(=O)O)[C@@H](OS(=O)(=O)O)[C@@H](O[C@H]7[C@H](OS(=O)(=O)O)[C@@H](OS(=O)(=O)O)[C@@H](O[C@H]8[C@H](OS(=O)(=O)O)[C@@H](OS(=O)(=O)O)[C@@H](O[C@H]1[C@H](OS(=O)(=O)O)[C@H]2OS(=O)(=O)O)O[C@@H]8CSC#N)O[C@@H]7CSC#N)O[C@@H]6CSC#N)O[C@@H]5CSC#N)O[C@@H]4CSC#N)O[C@@H]3CSC#N [β-Cyclo[6-deoxy-6-thiocyanato]dextrin poly(H-sulfate)poly-tr] [6,6',6",6'",6"",6'"",6"""-Heptadeoxy-6,6',6",6'",6"",6'"",6""-heptathiocyanato-β-cyclodextrin, tetradecakis(H-sulfte), tetradecasalt with trimethylamine] | 1 wells | N | 4 wells
8 | C[C@H]1O[C@@H]2O[C@H]3[C@H](OS(=O)(=O)O)[C@@H](OS(=O)(=O)O)[C@@H](O[C@H]4[C@H](OS(=O)(=O)O)[C@@H](OS(=O)(=O)O)[C@@H](O[C@H]5[C@H](OS(=O)(=O)O)[C@@H](OS(=O)(=O)O)[C@@H](O[C@H]6[C@H](OS(=O)(=O)O)[C@@H](OS(=O)(=O)O)[C@@H](O[C@H]7[C@H](OS(=O)(=O)O)[C@@H](OS(=O)(=O)O)[C@@H](O[C@H]8[C@H](OS(=O)(=O)O)[C@@H](OS(=O)(=O)O)[C@@H](O[C@H]1[C@H](OS(=O)(=O)O)[C@H]2OS(=O)(=O)O)O[C@@H]8C)O[C@@H]7C)O[C@@H]6C)O[C@@H]5C)O[C@@H]4C)O[C@@H]3C [β-Cyclo[6-deoxy]dextrin poly(H-sulfate)poly-sodium salt] [6,6',6",6'",6"",6'"",6"""-Heptadeoxy-β-cyclodextrin, tetradecakis(H-sulfate), tetradecasodium salt] | 5 wells | 4 wells | 9 wells
